Laboratory results published in article PMC8945229, “Development and Biological Characterization of a Novel Selective TrkA Agonist with Neuroprotective Properties against Amyloid Toxicity” (Biomedicines, 2022).

Key:
Erk1/2 = Erk1/2 phosphorylation in PC12 cells (Western blot); type: cell-based
Method: For immunoprecipitation experiments PC12 or HEK293T, cells were used when at 70–80% confluent. Cells were starved of serum for 4 h and subsequently treated with 100 ng/mL NGF or 500 nM of compound ENT-A013 for 30′. Cells were then lysed in Pierce™ IP Lysis Buffer (87788, Thermo Fischer Scientific, Waltham, MA, USA) containing proteases (539138, Calbiochem, Darmstadt, Germany) and phosphatase inhibitors (524629, Calbiochem, Darmstadt, Germany). Lysates were then immunoprecipitated overnight at 4 °C with TrkA antibody (1:100, 06-574, Sigma-Aldrich, St. Louis, MO, USA) (Table S1) or p75^NTR antibody (1:100, ab6172, Abcam plc., Cambridge, UK) followed by 4 h incubation with protein G-plus agarose beads (sc-2002, Santa Cruz Biotechnology, Inc., Dallas, TX, USA). Beads were then collected, washed 3X with lysis buffer, resuspended in SDS loading buffer and subjected to Western blot against phosphorylated Tyrosine (1:1000, BAM1676, R&D Systems, Inc., Minneapolis, MN, USA) or Traf6 antibody (1:2000, ab33915, Abcam, plc., Cambridge, UK). Whole cell lysates were subjected to Western blot against TrkA (1:1000, 06-574, Sigma-Aldrich, St. Louis, MO, USA), phosphorylated TrkB (1:1000, ABN1381, Sigma-Aldrich, St. Louis, MO, USA), phosphorylated TrkC (1:1000, STJ90960, St John’s Laboratory, Ltd., London, UK), TrkB (1:1000, 07-225-I, Sigma-Aldrich, St. Louis, MO, USA), TrkC (1:1000, C44H5, Cell Signaling Technology, Danvers, MA, USA), p75 (1:1000, 839701, Biolegend, Inc., San Diego, CA, USA), Traf6 (1:2000, ab33915, Abcam, plc., Cambridge, UK) phosphorylated Akt (1:1000, 9721S, Cell Signaling Technology, Danvers, MA, USA), phosphorylated Erk1/2 (1:1000, 9101S, Cell Signaling Technology, Danvers, MA, USA), total Akt (1:1000, 4691S Cell Signaling Technology, Danvers, MA, USA) and total Erk1/2 (1:1000, 4695S, Cell Signaling Technology, Danvers, MA, USA).

[1] = Metabolic stability in human liver microsomes; type: in vitro ADME; conditions: 1 μM, 0.5 mg/mL microsomes, 1 mM NADPH, t = 60 min
Method: Human liver microsome (pooled) concentration was set at 0.5 mg/mL and 1 mM NADPH served as a cofactor for oxidative (CYP-mediated) metabolic stability profiling. ENT-A013 was tested at 1 μM. Incubation conditions ensured linear metabolite formation with respect to reaction time and protein concentration. Incubations took place in triplicates at 37 °C in the presence of negative and positive controls (low vs. rapid clearance). Each reaction was terminated after the specified incubation period (60 min) and plates were read on Lionheart FX (BioTek, Winooski, VT, USA). Residual (%) of time zero (ENT-A013 depletion) was determined.

[2] = test system: Primary Dorsal Root Ganglia (DRG) neurons; assay: Neurite outgrowth assay in primary DRG neurons without NGF; type: cell-based, mouse; conditions: 500 nM every 48 h, 5 DIV, NGF-neutralizing antibody
Method: Primary Dorsal Root Ganglia (DRG) neurons were isolated from P0-P1 mouse pups (C57BL/6J, The Jackson Laboratory, Bar Harbor, ME, USA) as described previously and cultured with Neurobasal medium (21103049 Gibco, Grand Island, NY, USA) containing 2% B27 (17504044, Gibco, Grand Island, NY, USA), 100 ng/mL NGF (N-100, Alomone Labs, Jerusalem, Israel), 1X GlutaMax (35050061, Gibco, Grand Island, NY, USA), 10 mM HEPES (15630080, Gibco, Grand Island, NY, USA), 1% Penicillin/Streptomycin (15070063, Gibco, Grand Island, NY, USA) and 10 μM 5-Fluoro-2′-deoxyuridine (343333, Calbiochem, Darmstadt, Germany). For TUNEL assay, cells were cultured for 14 days in vitro and then the medium was deprived of NGF before adding ENT-A013 (500 nM, every 24 h) along with NGF-neutralizing antibody (N8773, 1:500, Sigma-Aldrich, St. Louis, MO, USA). Cells were then incubated for 48 h before being fixed with 4% PFA and labelled with TUNEL (11684795910, F. Hoffmann–La Roche Ltd., Basel, Switzerland) following the manufacturer’s protocol. Subsequently, cells were immunostained against Tuj1 (1:2000, 801201, Biolegend, Inc., San Diego, CA, USA) and anti-mouse Cy3 (1:1000, Invitrogen, A10521, Waltham, MA, USA) and imaged with a Leica SP8 confocal microscope. […] Cells were then imaged by confocal microscopy and neurite length was measured using Fiji software (NIH, Bethesda, Maryland, USA).

phosphorylated JNK = assay: JNK phosphorylation in primary hippocampal neurons treated with oligomeric Aβ (Western blot); type: cell-based, mouse; conditions: 500 nM every 24 h, 48 h
Method: treated with ENT-A013 (500nM) or Neurotrophin-3 (100ng/ml) for 30’ and then subjected to Western Blot against phosphorylated TrkC, Akt and Erk1/2. […]
phosphorylated any of those. (D) CellTox assay was performed in NIH-3T3-TrkB cells that were starved from serum and treated with ENT-A013 or BDNF for 24hrs. Quantification (E) […]
negative control (Serum Free).
Supplementary Figure S3: Primary DRG neurons were cultured in the presence of ENT-A013 (500nM, supplemented every 48hrs) and a neutralizing antibody against NGF for 5 days and then neurite length was measured by immunostaining against Tuj1 .
Supplementary Figure S4: Primary hippocampal neurons at 14-16 DIV were treated with oligomeric Aβ and in the presence of ENT-A013 (500nM, supplemented every 24hrs) for 48hrs and then were subjected to Western Blot against phosphorylated JNK. A representative blot […]

Compound: CC12CCC(O)CC1=CCC1C2CCC2(C)C1CCC21CC1C=CBr [ENT-A013, (2′R,3S,17S)-2′-(2-Bromovinyl)-5-Androstene-17,1′-Cyclopropan-3-ol]
- time Erk1/2 phosphorylation is sustained after treatment (Erk1/2): up to 1 hr
- Erk1/2 phosphorylation (Erk1/2; 500 nM, 30′): 2.5 ± 0.6 % of control FC
- residual of time zero [1]: 93%
- axonal / neurite length (in words) [2]: this difference was not significant
- phosphorylated JNK levels (in words) (phosphorylated JNK): reduced phosphorylated JNK levels similar to untreated control cells
